Test results from patent US20140303182A1, “PHARMACEUTICALLY ACCEPTABLE SALTS OF QUINOLINONE COMPOUNDS HAVING IMPROVED PHARMACEUTICAL PROPERTIES” (NOVARTIS AG, priority 2003, published 2014).
Structures can show the parent of a compound that is named as a salt. Where two headings read alike, the source gives them in different places.

Key:
[1] = Crystallinity by XRPD; assay type: physicochemical
Method: XRPD analyses were carried out on a Shimadzu XRD-6000 X-ray powder diffractometer using Cu Kα radiation. The instrument is equipped with a fine focus X-ray tube. The tube voltage and amperage were set to 40 kV and 40 mA, respectively. The divergence and scattering slits were set at 1° and the receiving slit was set at 0.15 mm. Diffracted radiation was detected by a NaI scintillation detector. A theta-two theta continuous scan at 3°/minute (0.4 seconds/0.02° step) from […] was used.

[2] = Chemical stability, solid state (HPLC); details: solid state
[3] = Aqueous equilibrium solubility and pH at saturation; assay type: physicochemical; details: water, 24 hours at 22° C., HPLC, free base equivalent

Structure (SMILES) | Crystallinity [1] | Solubility [3] | further results
CN1CCN(c2ccc3nc(-c4c(N)c5c(F)cccc5[nH]c4=O)[nH]c3c2)CC1 [Bis-mesylate, 4-Amino-5-fluoro-3-[6-(4-methylpiperazin-1-yl)-1H-benzimidazol-2-yl]-1H-quinolin-2-one] | mixture of crystalline |  | Crystallinity ([1]; listed as bis-mesylate): crystalline; Area % at Time = 0 ([2]; 30° C./60% Relative humidity): 99.01 Area %; Area % at Time = 6 weeks ([2]; 30° C./60% Relative humidity): 98.12 Area %; Area % at Time = 0 ([2]; 40° C./70% Relative humidity): 98.78 Area %; Area % at Time = 6 weeks ([2]; 40° C./70% Relative humidity): 98.35 Area %
CN1CCN(c2ccc3nc(-c4c(N)c5c(F)cccc5[nH]c4=O)[nH]c3c2)CC1 [Mono-citrate, 4-Amino-5-fluoro-3-[6-(4-methylpiperazin-1-yl)-1H-benzimidazol-2-yl]-1H-quinolin-2-one] | crystalline | 0.456 mg FB/mL | Crystallinity ([1]; listed as citrate): crystalline; Solubility ([3]; listed as Citrate): 27.2 mg FB/mL
CN1CCN(c2ccc3nc(-c4c(N)c5c(F)cccc5[nH]c4=O)[nH]c3c2)CC1 [Nitrate, 4-Amino-5-fluoro-3-[6-(4-methylpiperazin-1-yl)-1H-benzimidazol-2-yl]-1H-quinolin-2-one] |  | 6.7 mg FB/mL | 
CN1CCN(c2ccc3nc(-c4c(N)c5c(F)cccc5[nH]c4=O)[nH]c3c2)CC1 [Maleate, 4-Amino-5-fluoro-3-[6-(4-methylpiperazin-1-yl)-1H-benzimidazol-2-yl]-1H-quinolin-2-one] |  | 0.866 mg FB/mL | 
CN1CCN(c2ccc3nc(-c4c(N)c5c(F)cccc5[nH]c4=O)[nH]c3c2)CC1 [Glycinate, 4-Amino-5-fluoro-3-[6-(4-methylpiperazin-1-yl)-1H-benzimidazol-2-yl]-1H-quinolin-2-one] |  | 0.0638 mg FB/mL | 
CN1CCN(c2ccc3nc(-c4c(N)c5c(F)cccc5[nH]c4=O)[nH]c3c2)CC1 [Mono-acetate, 4-Amino-5-fluoro-3-[6-(4-methylpiperazin-1-yl)-1H-benzimidazol-2-yl]-1H-quinolin-2-one] | amorphous | 84.4 mg FB/mL | Crystallinity ([1]; listed as Acetate): mixture of crystalline; Crystallinity ([1]; listed as acetate salt): amorphous; Solubility ([3]; listed as Acetate): 15.4 mg FB/mL
CN1CCN(c2ccc3nc(-c4c(N)c5c(F)cccc5[nH]c4=O)[nH]c3c2)CC1 [Bis-Acetate, 4-Amino-5-fluoro-3-[6-(4-methylpiperazin-1-yl)-1H-benzimidazol-2-yl]-1H-quinolin-2-one] | mixture of crystalline | 31.9 mg FB/mL | Crystallinity ([1]; listed as bis-acetate): mixture of crystalline and amorphous material
CN1CCN(c2ccc3nc(-c4c(N)c5c(F)cccc5[nH]c4=O)[nH]c3c2)CC1 [Hemi-malate, 4-Amino-5-fluoro-3-[6-(4-methylpiperazin-1-yl)-1H-benzimidazol-2-yl]-1H-quinolin-2-one] | crystalline | 6.39 mg FB/mL | 
CN1CCN(c2ccc3nc(-c4c(N)c5c(F)cccc5[nH]c4=O)[nH]c3c2)CC1 [Hydrochloride, 4-Amino-5-fluoro-3-[6-(4-methylpiperazin-1-yl)-1H-benzimidazol-2-yl]-1H-quinolin-2-one] |  | 26.3 mg FB/mL | 
CN1CCN(c2ccc3nc(-c4c(N)c5c(F)cccc5[nH]c4=O)[nH]c3c2)CC1 [Bis-Glycinate, 4-Amino-5-fluoro-3-[6-(4-methylpiperazin-1-yl)-1H-benzimidazol-2-yl]-1H-quinolin-2-one] |  | 0.11 mg FB/mL | 
CN1CCN(c2ccc3nc(-c4c(N)c5c(F)cccc5[nH]c4=O)[nH]c3c2)CC1 [BisHCl, 4-Amino-5-fluoro-3-[6-(4-methylpiperazin-1-yl)-1H-benzimidazol-2-yl]-1H-quinolin-2-one] |  | 42 mg FB/mL | 
